Values joined by “and” are separate entries in the source; they are usually repeats but may differ in a detail not shown here. Equal entries are not always repeated.
Experiment: Solution stability test (HPLC) of UDCA, branched chained amino acids and maltodextrin solution, Example IV
Assay type: physicochemical
Procedure: The stability tests were conducted on three different aqueous solution systems: […]. A bile acid and a high molecular weight aqueous soluble starch conversion product were combined in aqueous solution according to Example I, with results as shown in Tables 1A and 1B. • 2. Mixed bile acids and high molecular weight aqueous soluble starch conversion products were combined in aqueous solution according to Example II, with results as shown in Table 2. • 3. Bile acids, high molecular weight aqueous soluble starch conversion products and branched chained amino acids (e.g. leucine, isoleucine, valine, or other amino acid with a branched side chain) were combined in aqueous solution according to Example IV, with results as shown in Tables 3A through 3F. The stability tests were performed with HPLC and microscope light at various pH conditions under the normal and accelerated conditions. Accelerated conditions for testing pharmaceutical compositions have been described (Remington, The Science and Practice of Pharmacy, 19th ed., p. 640). […] Thus, the formulations of the examples are suitable for preparing a commercial liquid dosage form. […] Some formulations remain stable for over 2 years. Moreover, the solution stability tests were conducted on the aqueous solution dosage forms comprising the mixture of aqueous soluble UDCA, branched chained amino acid (leucine, isoleucine, valine) and maltodextrin according to example IV as a typical example of the solution dosage forms in which bile acid as a therapeutically active agent, as an adjuvant or carrier, pharmaceutically active agent, or enhancer of solubility, and high molecular weight aqueous soluble starch conversion products or soluble non-starch polysaccharides are dissolved. According to the test results, there is no discoloration, no clarity changes, and no precipitation. […] In the tables, the concentration of the indicated bile acid salt for each of the three numbered trials and the average thereof is reported on each line. The percentage indicates the relative concentration of the bile acid salt after incubation for a certain amount of time in comparison with the initial concentration. 85 mL of the aqueous solution in which soluble UDCA is dissolved was prepared, and then maltodextrin was added into the clear solution. Into the resulting clear solution, branched amino acids were added with adjusting the pH (4–7) with agitation and then sweetener, preservatives, and flavoring agent were added. Purified water was added to adjust the total volume to be 100 mL. Tables 3A to 3F show stability test results over time of formulation prepared with amino acids according to Example IV. All stability tests were conducted at 50° C. Stability test results at pH 1 (Table 3A), pH 3 (Table 3B), pH 5 (Table 3C), pH 7 (Table 3D), pH 9 (Table 3E), and pH 10 (Table 3F) are shown.

CC[C@H](C)[C@H](N)C(=O)O [Ile, isoleucine]
Percentage of day 0 concentration (Table 3A: pH1, 50° C., day 0): 100.0%
concentration by HPLC, Average (Table 3A: pH1, 50° C., day 0): 0.248
concentration by HPLC, trials #1-#3 (Table 3A: pH1, 50° C., day 0): 0.261 and 0.236 and 0.249
Percentage of day 0 concentration (Table 3A: pH1, 50° C., day 1): 105.0%
concentration by HPLC, Average (Table 3A: pH1, 50° C., day 1): 0.261
concentration by HPLC, trials #1-#3 (Table 3A: pH1, 50° C., day 1): 0.256 and 0.275 and 0.251
Percentage of day 0 concentration (Table 3A: pH1, 50° C., day 2): 104.9%
concentration by HPLC, Average (Table 3A: pH1, 50° C., day 2): 0.260
concentration by HPLC, trials #1-#3 (Table 3A: pH1, 50° C., day 2): 0.268 and 0.263 and 0.251
Percentage of day 0 concentration (Table 3A: pH1, 50° C., day 6): 114.6%
concentration by HPLC, Average (Table 3A: pH1, 50° C., day 6): 0.285
concentration by HPLC, trials #1-#3 (Table 3A: pH1, 50° C., day 6): 0.295 and 0.268 and 0.291
Percentage of day 0 concentration (Table 3A: pH1, 50° C., day 7): 103.4%
concentration by HPLC, Average (Table 3A: pH1, 50° C., day 7): 0.257
concentration by HPLC, trials #1-#3 (Table 3A: pH1, 50° C., day 7): 0.249 and 0.254 and 0.267
Percentage of day 0 concentration (Table 3A: pH1, 50° C., day 8): 98.8%
concentration by HPLC, Average (Table 3A: pH1, 50° C., day 8): 0.245
concentration by HPLC, trials #1-#3 (Table 3A: pH1, 50° C., day 8): 0.253 and 0.243 and 0.240
Percentage of day 0 concentration (Table 3A: pH1, 50° C., day 9): 106.6%
concentration by HPLC, Average (Table 3A: pH1, 50° C., day 9): 0.265
concentration by HPLC, trials #1-#3 (Table 3A: pH1, 50° C., day 9): 0.263 and 0.268
Percentage of day 0 concentration (Table 3B: pH 3, 50° C., day 0): 100.0%
concentration by HPLC, Average (Table 3B: pH 3, 50° C., day 0): 0.256
concentration by HPLC, trials #1-#3 (Table 3B: pH 3, 50° C., day 0): 0.261 and 0.254 and 0.253
Percentage of day 0 concentration (Table 3B: pH 3, 50° C., day 1): 103.3%
concentration by HPLC, Average (Table 3B: pH 3, 50° C., day 1): 0.265
concentration by HPLC, trials #1-#3 (Table 3B: pH 3, 50° C., day 1): 0.266 and 0.268 and 0.261
Percentage of day 0 concentration (Table 3B: pH 3, 50° C., day 2): 99.3%
concentration by HPLC, Average (Table 3B: pH 3, 50° C., day 2): 0.254
concentration by HPLC, trials #1-#3 (Table 3B: pH 3, 50° C., day 2): 0.273 and 0.243 and 0.247
Percentage of day 0 concentration (Table 3B: pH 3, 50° C., day 6): 117.4%
concentration by HPLC, Average (Table 3B: pH 3, 50° C., day 6): 0.301
concentration by HPLC, trials #1-#3 (Table 3B: pH 3, 50° C., day 6): 0.296 and 0.306 and 0.300
Percentage of day 0 concentration (Table 3B: pH 3, 50° C., day 7): 100.0%
concentration by HPLC, Average (Table 3B: pH 3, 50° C., day 7): 0.256
concentration by HPLC, trials #1-#3 (Table 3B: pH 3, 50° C., day 7): 0.247 and 0.265 and 0.257
Percentage of day 0 concentration (Table 3B: pH 3, 50° C., day 8): 96.7%
concentration by HPLC, Average (Table 3B: pH 3, 50° C., day 8): 0.248
concentration by HPLC, trials #1-#3 (Table 3B: pH 3, 50° C., day 8): 0.250 and 0.247
Percentage of day 0 concentration (Table 3B: pH 3, 50° C., day 13): 100.9%
concentration by HPLC, Average (Table 3B: pH 3, 50° C., day 13): 0.258
concentration by HPLC, trials #1-#3 (Table 3B: pH 3, 50° C., day 13): 0.285 and 0.240 and 0.250
Percentage of day 0 concentration (Table 3C: pH 5, 50° C., day 0): 100.0%
concentration by HPLC, Average (Table 3C: pH 5, 50° C., day 0): 0.279
concentration by HPLC, trials #1-#3 (Table 3C: pH 5, 50° C., day 0): 0.285 and 0.258 and 0.295
Percentage of day 0 concentration (Table 3C: pH 5, 50° C., day 3): 99.0%
concentration by HPLC, Average (Table 3C: pH 5, 50° C., day 3): 0.277
concentration by HPLC, trials #1-#3 (Table 3C: pH 5, 50° C., day 3): 0.280 and 0.275
Percentage of day 0 concentration (Table 3C: pH 5, 50° C., day 6): 98.7%
concentration by HPLC, Average (Table 3C: pH 5, 50° C., day 6): 0.276
concentration by HPLC, trials #1-#3 (Table 3C: pH 5, 50° C., day 6): 0.285 and 0.273 and 0.270
Percentage of day 0 concentration (Table 3C: pH 5, 50° C., day 10): 98.4%
concentration by HPLC, Average (Table 3C: pH 5, 50° C., day 10): 0.275
concentration by HPLC, trials #1-#3 (Table 3C: pH 5, 50° C., day 10): 0.274 and 0.276
Percentage of day 0 concentration (Table 3C: pH 5, 50° C., day 13): 100.0%
concentration by HPLC, Average (Table 3C: pH 5, 50° C., day 13): 0.279
concentration by HPLC, trials #1-#3 (Table 3C: pH 5, 50° C., day 13): 0.273 and 0.287 and 0.278
Percentage of day 0 concentration (Table 3C: pH 5, 50° C., day 17): 98.3%
concentration by HPLC, Average (Table 3C: pH 5, 50° C., day 17): 0.275
concentration by HPLC, trials #1-#3 (Table 3C: pH 5, 50° C., day 17): 0.278 and 0.276 and 0.270
Percentage of day 0 concentration (Table 3C: pH 5, 50° C., day 20): 95.0%
concentration by HPLC, Average (Table 3C: pH 5, 50° C., day 20): 0.266
concentration by HPLC, trials #1-#3 (Table 3C: pH 5, 50° C., day 20): 0.261 and 0.275
Percentage of day 0 concentration (Table 3C: pH 5, 50° C., day 24): 99.3%
concentration by HPLC, Average (Table 3C: pH 5, 50° C., day 24): 0.277
concentration by HPLC, trials #1-#3 (Table 3C: pH 5, 50° C., day 24): 0.267 and 0.274 and 0.292
Percentage of day 0 concentration (Table 3D: pH 7, 50° C., day 0): 100.0%
concentration by HPLC, Average (Table 3D: pH 7, 50° C., day 0): 0.289
concentration by HPLC, trials #1-#3 (Table 3D: pH 7, 50° C., day 0): 0.296 and 0.289 and 0.281
Percentage of day 0 concentration (Table 3D: pH 7, 50° C., day 5): 99.7%
concentration by HPLC, Average (Table 3D: pH 7, 50° C., day 5): 0.288
concentration by HPLC, trials #1-#3 (Table 3D: pH 7, 50° C., day 5): 0.300 and 0.282 and 0.281
Percentage of day 0 concentration (Table 3D: pH 7, 50° C., day 8): 95.5%
concentration by HPLC, Average (Table 3D: pH 7, 50° C., day 8): 0.276
concentration by HPLC, trials #1-#3 (Table 3D: pH 7, 50° C., day 8): 0.277 and 0.282 and 0.268
Percentage of day 0 concentration (Table 3D: pH 7, 50° C., day 12): 95.8%
concentration by HPLC, Average (Table 3D: pH 7, 50° C., day 12): 0.277
concentration by HPLC, trials #1-#3 (Table 3D: pH 7, 50° C., day 12): 0.273 and 0.278
Percentage of day 0 concentration (Table 3D: pH 7, 50° C., day 15): 93.5%
concentration by HPLC, Average (Table 3D: pH 7, 50° C., day 15): 0.270
concentration by HPLC, trials #1-#3 (Table 3D: pH 7, 50° C., day 15): 0.271 and 0.273 and 0.266
Percentage of day 0 concentration (Table 3D: pH 7, 50° C., day 19): 99.3%
concentration by HPLC, Average (Table 3D: pH 7, 50° C., day 19): 0.287
concentration by HPLC, trials #1-#3 (Table 3D: pH 7, 50° C., day 19): 0.294 and 0.285 and 0.281
Percentage of day 0 concentration (Table 3E: pH 9, 50° C., day 0): 100.0%
concentration by HPLC, Average (Table 3E: pH 9, 50° C., day 0): 0.286
concentration by HPLC, trials #1-#3 (Table 3E: pH 9, 50° C., day 0): 0.291 and 0.286 and 0.282
Percentage of day 0 concentration (Table 3E: pH 9, 50° C., day 3): 95.6%
concentration by HPLC, Average (Table 3E: pH 9, 50° C., day 3): 0.273
concentration by HPLC, trials #1-#3 (Table 3E: pH 9, 50° C., day 3): 0.266 and 0.273 and 0.282
Percentage of day 0 concentration (Table 3E: pH 9, 50° C., day 6): 95.9%
concentration by HPLC, Average (Table 3E: pH 9, 50° C., day 6): 0.274
concentration by HPLC, trials #1-#3 (Table 3E: pH 9, 50° C., day 6): 0.277 and 0.274 and 0.272
Percentage of day 0 concentration (Table 3E: pH 9, 50° C., day 10): 91.2%
concentration by HPLC, Average (Table 3E: pH 9, 50° C., day 10): 0.261
concentration by HPLC, trials #1-#3 (Table 3E: pH 9, 50° C., day 10): 0.243 and 0.245 and 0.295
Percentage of day 0 concentration (Table 3E: pH 9, 50° C., day 13): 87.4%
concentration by HPLC, Average (Table 3E: pH 9, 50° C., day 13): 0.250
concentration by HPLC, trials #1-#3 (Table 3E: pH 9, 50° C., day 13): 0.246 and 0.269 and 0.236
Percentage of day 0 concentration (Table 3E: pH 9, 50° C., day 17): 93.1%
concentration by HPLC, Average (Table 3E: pH 9, 50° C., day 17): 0.267
concentration by HPLC, trials #1-#3 (Table 3E: pH 9, 50° C., day 17): 0.275 and 0.280 and 0.245
Percentage of day 0 concentration (Table 3F: pH 10, 50° C., day 0): 100.0%
concentration by HPLC, Average (Table 3F: pH 10, 50° C., day 0): 0.287
concentration by HPLC, trials #1-#3 (Table 3F: pH 10, 50° C., day 0): 0.292
Percentage of day 0 concentration (Table 3F: pH 10, 50° C., day 2): 84.7%
concentration by HPLC, Average (Table 3F: pH 10, 50° C., day 2): 0.243
Percentage of day 0 concentration (Table 3F: pH 10, 50° C., day 5): 76.0%
concentration by HPLC, Average (Table 3F: pH 10, 50° C., day 5): 0.218
Percentage of day 0 concentration (Table 3F: pH 10, 50° C., day 7): 74.5%
concentration by HPLC, Average (Table 3F: pH 10, 50° C., day 7): 0.214
Percentage of day 0 concentration (Table 3F: pH 10, 50° C., day 9): 70.2%
concentration by HPLC, Average (Table 3F: pH 10, 50° C., day 9): 0.202
concentration by HPLC, trials #1-#3 (Table 3F: pH 10, 50° C., day 9): 0.206 and 0.192 and 0.207
